Source: patent US11033556B2, “Bicyclic sulfonamides” (priority 2019, dated 2021)
pEC50: −log10 of the molar value. Read-outs that look alike come from different tables or passages of the source.

Columns and labels:
HBV = assay: HBV-DNA Antiviral Assay Using HepG2.2.15 Cells; type: cell-based; settings: Hepatitis B virus
Experimental: The following assay procedure describes the HBV antiviral assay. This assay uses HepG2.2.15 cells, which have been transfected with HBV genome, and extracellular HBV DNA quantification as endpoint. Cell viability is assessed in parallel by measuring the intracellular ATP content using the CellTiter-Glo® reagent from Promega.
On day 0, HepG2.2.15 cells were seeded in 96-well plates at a density of 6.0×10^4 cells/well(0.1 ml/well). The cells were incubated at 37° C. and 5% CO2.
On day 1, the test articles were diluted and added to cell culture wells (8 concentrations, 4-fold dilution, in duplicate). GLS4, Tenofovir and Sorafenib were used as reference compounds. 100 μl of culture medium containing the compounds was added to the plate, and the final total volume per well was 200 μl. The final concentration of DMSO in the culture medium was 0.5%. The plate map of compound treatment is shown below. The cells were cultured at 37° C. and 5% CO2 for 3 days.
On day 4, the plates were refreshed with culture media with compounds.
On day 7, cell viability was assessed using the CellTiter-Glo®, and the cell culture supernatants were collected for determination of HBV DNA by qPCR.
Extracellular DNA was isolated with QIAamp 96 DNA Blood Kit per the manufacturer's manual. HBV DNA was then quantified by qPCR with HBV specific primers and probes as specified in Table 2 using the FastStart Universal MasterMix from Roche on an ABI-7900HT. The PCR cycle program consisted of 95° C. for 10 min, followed by 40 cycles at 95° C. for 15 sec and 60° C. for 1 min.
A DNA standard was prepared by dilution of the pAAV2 HBV1.3 plasmid with concentrations ranging from 10 to 1×10^7 […] and used to generate a standard curve by plotting Ct value vs. the concentration of the HBV plasmid DNA standard. The quantity of HBV DNA in each sample was determined by interpolating from the standard curve.
Cell viability was calculated as follows: % Cell viability=(luminescence value of test sample−average luminescence value of blank)/(average luminescence value of 0.5% DMSO control−average luminescence of blank)×100%. HBV DNA inhibition was calculated as follows: 100−(HBV DNA copy number of test sample−HBV DNA copy number of ETV)/HBV DNA copy number of 0.5% DMSO control−HBV DNA copy number of ETV)×100%. The CC50, EC50 and EC90 values were determined by dose-response curves fitted by GraphPad Prism using “log (agonist) vs. response—Variable slope”.

genotype D HBV = assay: HBV-DNA Antiviral Assay Using HepG2.117 Cells; type: cell-based; settings: Hepatitis B virus, HepG2.117, 96 h, intracellular HBV DNA by qPCR, day 4
Experimental: The following assay procedure describes the HBV antiviral assay, using HepG2.117 cells, which carry a stably integrated genotype D HBV genome under the control of a Tet-off promoter, and intracellular HBV DNA quantification as endpoint. Cell viability is assessed in parallel by measuring the intracellular ATP content using ATPlite (Perkin Elmer).
On day 0, HepG2.117 cells (which are maintained in routine cell culture with doxycycline present in the medium at a final concentration of 1 μg/mL) were seeded in 96-well plates (white with clear bottom) at a density of 2.0×10^4 cells/well (0.1 mL/well) in medium without doxycycline to induce pgRNA transcription and subsequent formation of HBV particles. The cells were incubated at 37° C. and 5% CO2.
On day 1, medium was removed from each well, the test articles were diluted in culture medium without doxcycyline and 100 μL was added to cell culture wells (9 concentrations, 4-fold dilution). For each plate, 6 untreated (merely DMSO) wells were included. The final concentration of DMSO in the culture medium was 2%. Each plate was prepared in duplicate (one for HBV DNA extraction, one for ATPlite measurement). The cells were incubated at 37° C. and 5% CO2 for 3 days.
On day 4, cell viability was assessed using ATPlite and cell lysates were prepared for HBV DNA extraction and subsequent quantification by qPCR.
Medium was removed from each well and 100 μL of 0.33% NP-40 in H2O was added to each well. Plates were sealed, incubated at 4° C. for 5 mins, vortexed extensively and centrifuged briefly. Next, 35 μL of lysate was added to 65 μL QuickExtract DNA Extraction Solution (Epicentre) in a PCR plate for each well. PCR plate was incubated at 65° C. for 6 mins, 98° C. for 2 mins and finally cooled to 4° C. HBV DNA was then quantified by qPCR with HBV-specific primers and probes as specified in Table 4 using the Bio-Rad SSOAdvanced Universal Probes Supermix on a CFX96 machine (Bio-Rad). The PCR cycle program consisted of 95° C. for 3 mins, followed by 40 cycles at 95° C. for 10 sec and 60° C. for 30 sec.
A DNA standard was prepared by dilution of an IDT gBlock corresponding to the amplicon with concentrations ranging from 10^2 to 10^8 copies/input (i.e. per 4 μL) and used to generate a standard curve by plotting Cq values vs. HBV DNA standard concentration. The quantity of HBV DNA in each sample was determined by interpolating from the standard curve.
Cell viability was calculated as follows: % Cell viability=(luminescence value of test sample)/(average luminescence value of 2% DMSO control)×100%. HBV DNA inhibition was calculated as follows: 100−(HBV DNA copy number of test sample)/(average HBV DNA copy number of 2% DMSO control)×100%. No normalization to entecavir was required due to the excellent dynamic window of this assay. The CC50, EC50 and EC90 values were determined by dose-response curves fitted by GraphPad Prism using “log (agonist) vs. response—Variable slope”.

[1] = HepG2.2.15 cells, extracellular HBV DNA by qPCR, one class for the group of four: *at least 2 of the diastereomers have the indicated activity, read-out: EC50

C#C[C@@H](O)[C@@H]1CCc2c(cn(C)c2C(=O)Nc2ccc(F)c(C#N)c2)S(=O)(=O)N1 [Compound 2D, (3S)—N-(3-cyano-4-fluorophenyl)-3-[(1R)-1-hydroxyprop-2-yn-1-yl]-7-methyl-1,1-dioxo-2H,3H,4H,5H-1λ6-pyrrolo[3,4-f][1,2]thiazepine-6-carboxamide]
pEC50 (HBV; [1]): > 6.00

CC#C[C@@H](O)[C@H]1CCc2c(cn(C)c2C(=O)Nc2ccc(F)c(C#N)c2)S(=O)(=O)N1 [Compound 3A, (3R)—N-(3-cyano-4-fluorophenyl)-3-[(1R)-1-hydroxybut-2-yn-1-yl]-7-methyl-1,1-dioxo-2H,3H,4H,5H-1λ6-pyrrolo[3,4-f][1,2]thiazepine-6-carboxamide]
pEC50 (HBV; HepG2.2.15): > 6.00

Cn1cc2c(c1C(=O)Nc1ccc(F)c(C#N)c1)OC[C@H](C=C(F)F)NS2(=O)=O [Compound 6A]
pEC50 (HBV; 168 h, HepG2.2.15 cells, extracellular HBV DNA by qPCR, day 7, read-out: EC50): > 6.00

C#C[C@H](O)[C@H]1CCc2c(cn(C)c2C(=O)Nc2ccc(F)c(C#N)c2)S(=O)(=O)N1 [Compound 2B, (3R)—N-(3-cyano-4-fluorophenyl)-3-[(1S)-1-hydroxyprop-2-yn-1-yl]-7-methyl-1,1-dioxo-2H,3H,4H,5H-1λ6-pyrrolo[3,4-f][1,2]thiazepine-6-carboxamide]
pEC50 (HBV; [1]): > 6.00

C#C[C@H](O)[C@@H]1CCc2c(cn(C)c2C(=O)Nc2ccc(F)c(C#N)c2)S(=O)(=O)N1 [Compound 2C, (3S)—N-(3-cyano-4-fluorophenyl)-3-[(1S)-1-hydroxyprop-2-yn-1-yl]-7-methyl-1,1-dioxo-2H,3H,4H,5H-1λ6-pyrrolo[3,4-f][1,2]thiazepine-6-carboxamide]
pEC50 (HBV; [1]): > 6.00

CC#C[C@@H](O)[C@@H]1CCc2c(cn(C)c2C(=O)Nc2ccc(F)c(C#N)c2)S(=O)(=O)N1 [Compound 3D, (3S)—N-(3-cyano-4-fluorophenyl)-3-[(1R)-1-hydroxybut-2-yn-1-yl]-7-methyl-1,1-dioxo-2H,3H,4H,5H-1λ6-pyrrolo[3,4-f][1,2]thiazepine-6-carboxamide]
pEC50 (HBV; HepG2.2.15): > 6.00

C=C[C@@H](O)[C@H]1CCc2c(cn(C)c2C(=O)Nc2ccc(F)c(C#N)c2)S(=O)(=O)N1 [Compound 4A, (3R)—N-(3-cyano-4-fluorophenyl)-3-[(1R)-1-hydroxyprop-2-en-1-yl]-7-methyl-1,1-dioxo-2H,3H,4H,5H-1λ6-pyrrolo[3,4-f][1,2]thiazepine-6-carboxamide]
pEC50 (HBV; [1]): > 6.00

C#C[C@@H](O)[C@H]1CCc2c(cn(C)c2C(=O)Nc2ccc(F)c(C#N)c2)S(=O)(=O)N1 [Compound 2A, (3R)—N-(3-cyano-4-fluorophenyl)-3-[(1R)-1-hydroxyprop-2-yn-1-yl]-7-methyl-1,1-dioxo-2H,3H,4H,5H-1λ6-pyrrolo[3,4-f][1,2]thiazepine-6-carboxamide]
pEC50 (HBV; [1]): > 6.00

C=C[C@@](O)([C@H]1COc2c(cn(C)c2C(=O)Nc2ccc(F)c(C(F)(F)F)c2)S(=O)(=O)N1)C(F)(F)F [Compound 20]
pEC50 (genotype D HBV): 8.00 to 9.00

CC#C[C@H](O)[C@@H]1CCc2c(cn(C)c2C(=O)Nc2ccc(F)c(C#N)c2)S(=O)(=O)N1 [Compound 3C, (3S)—N-(3-cyano-4-fluorophenyl)-3-[(1S)-1-hydroxybut-2-yn-1-yl]-7-methyl-1,1-dioxo-2H,3H,4H,5H-1λ6-pyrrolo[3,4-f][1,2]thiazepine-6-carboxamide]
pEC50 (HBV; HepG2.2.15): > 6.00

C=C[C@](C)(O)[C@H]1COc2c(cn(C)c2C(=O)Nc2ccc(F)c(C#N)c2)S(=O)(=O)N1 [Compound 28B]
pEC50 (genotype D HBV): 8.00 to 9.00

C#CC(O)([C@H]1COc2c(cn(C)c2C(=O)Nc2ccc(F)c(C#N)c2)S(=O)(=O)N1)C(F)(F)F (some centres unmarked) [Compound 37]
pEC50 (genotype D HBV): 7.00 to 8.00

C=C[C@@H](O)[C@@H]1CCc2c(cn(C)c2C(=O)Nc2ccc(F)c(C#N)c2)S(=O)(=O)N1 [Compound 4D, (3S)—N-(3-cyano-4-fluorophenyl)-3-[(1R)-1-hydroxyprop-2-en-1-yl]-7-methyl-1,1-dioxo-2H,3H,4H,5H-1λ6-pyrrolo[3,4-f][1,2]thiazepine-6-carboxamide]
pEC50 (HBV; [1]): > 6.00

C=C[C@](C)(O)[C@H]1COc2c(cn(C)c2C(=O)Nc2ccc(F)c(C(F)(F)F)c2)S(=O)(=O)N1 [Compound 29B]
pEC50 (genotype D HBV): 8.00 to 9.00

C=C[C@](O)([C@@H]1COc2c(cn(C)c2C(=O)Nc2ccc(F)c(C(F)(F)F)c2)S(=O)(=O)N1)C(F)(F)F [Compound 26]
pEC50 (genotype D HBV): 7.00 to 8.00

C=C[C@]1(C)COc2c(cn(C)c2C(=O)Nc2ccc(F)c(C#N)c2)S(=O)(=O)N1 [Compound 15A]
pEC50 (genotype D HBV): 8.00 to 9.00

C=CC[C@@H](O)[C@H]1COc2c(cn(C)c2C(=O)Nc2ccc(F)c(C#N)c2)S(=O)(=O)N1 [Compound 17B]
pEC50 (genotype D HBV): 8.00 to 9.00

C=CC[C@H](O)[C@@H]1COc2c(cn(C)c2C(=O)Nc2ccc(F)c(C#N)c2)S(=O)(=O)N1 [Compound 25B]
pEC50 (genotype D HBV): 7.00 to 8.00

C=CC(O)([C@H]1COc2c(cn(C)c2C(=O)Nc2ccc(F)c(C#N)c2)S(=O)(=O)N1)C(F)(F)F (some centres unmarked) [Compound 34]
pEC50 (genotype D HBV): > 9.00

CC#C[C@H](O)[C@H]1COc2c(cn(C)c2C(=O)Nc2ccc(F)c(C#N)c2)S(=O)(=O)N1 [Compound 19A]
pEC50 (genotype D HBV): 8.00 to 9.00

C=CC1([C@@H]2COc3c(cn(C)c3C(=O)Nc3ccc(F)c(C#N)c3)S(=O)(=O)N2)CCOCC1 [Compound 39B]
pEC50 (genotype D HBV): 7.00 to 8.00

C=C[C@@]1(CO)CCc2c(cn(C)c2C(=O)Nc2ccc(F)c(C(F)(F)F)c2)S(=O)(=O)N1 [Compound 9A]
pEC50 (genotype D HBV): 7.00 to 8.00

C=C[C@]1(CO)COc2c(cn(C)c2C(=O)Nc2ccc(F)c(C#N)c2)S(=O)(=O)N1 [Compound 30B]
pEC50 (genotype D HBV): 7.00 to 8.00

C#C[C@](C)(O)[C@H]1COc2c(cn(C)c2C(=O)Nc2ccc(F)c(C(F)(F)F)c2)S(=O)(=O)N1 [Compound 36A]
pEC50 (genotype D HBV): 7.00 to 8.00

C=CC[C@]1(C)COc2c(cn(C)c2C(=O)Nc2ccc(F)c(C#N)c2)S(=O)(=O)N1 [Compound 16A]
pEC50 (genotype D HBV): 8.00 to 9.00

CC#C[C@@H](O)[C@H]1COc2c(cn(C)c2C(=O)Nc2ccc(F)c(C#N)c2)S(=O)(=O)N1 [Compound 19B]
pEC50 (genotype D HBV): 8.00 to 9.00

C#C[C@@](C)(O)[C@H]1COc2c(cn(C)c2C(=O)Nc2ccc(F)c(C#N)c2)S(=O)(=O)N1 [Compound 35B]
pEC50 (genotype D HBV): 8.00 to 9.00

C=C[C@@](C)(O)[C@H]1CCc2c(cn(C)c2C(=O)Nc2ccc(F)c(C#N)c2)S(=O)(=O)N1 [Compound 11B]
pEC50 (genotype D HBV): 8.00 to 9.00

C=CC[C@@H](O)[C@@]1(C)COc2c(cn(C)c2C(=O)Nc2ccc(F)c(C#N)c2)S(=O)(=O)N1 [Compound 44B]
pEC50 (genotype D HBV): 8.00 to 9.00
